Assay [1] concerns Pseudomonas aeruginosa expressing AmpC (CL5701). Kind of assay: Antibiotic activity: growth inhibitory concentration (OD600), Pseudomonas aeruginosa CL5701. It is filed as cell-based. The following applies: lowest concentration inhibiting 95% of bacterial growth; in the presence of β lactamase inhibitor Relebactam 4 μg/mL; 35±2° C. for 22 hours; tested range 100 μM to 0.098 μM. The gist of the method: (§1)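 Growth inhibition by OD600 after 22 hours incubation at 35±2° C, reported as lowest concentration inhibiting 95% of growth (MITC95). Final compound range 100 μM to 0.098 μM, always combined with β-lactamase inhibitor relebactam (4 μg/mL final); inoculum ~2×10^5 CFU/mL in cation-adjusted Mueller-Hinton II broth.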

Assay [2] has as its system Klebsiella pneumoniae expressing KPC-1 (CL6569). Kind of assay: Antibiotic activity: growth inhibitory concentration (OD600), Klebsiella pneumoniae CL6569. To be noted: lowest concentration inhibiting 95% of bacterial growth; in the presence of β lactamase inhibitor Relebactam 4 μg/mL; 35±2° C. for 22 hours; tested range 100 μM to 0.098 μM. The class given is cell-based. The gist of the method: as §1

These results are taken from patent US11230543B2, “Biaryl monobactam compounds and methods of use thereof for the treatment of bacterial infections” (priority 2015, dated 2022).

Where a name gives a salt, the structure may show the parent alone.

In the case of `CC1(C)[C@H](NC(=O)/C(=N\O[C@@H](COc2ccc(Nc3nccn3CCCN)nc2)C(=O)O)c2csc(N)n2)C(=O)N1OS(=O)(=O)O` [Example 37A, 3-(2-((5-((S)-2-((((Z)-1-(2-aminothiazol-4-yl)-2-(((S)-2,2-dimethyl-4-oxo-1-(sulfooxy)azetidin-3-yl)amino)-2-oxoethylidene)amino)oxy)-2-carboxyethoxy)pyridin-2-yl)amino)-1H-imidazol-1-yl)propan-1-aminium 2,2,2-trifluoroacetate], in assay [1], the “PA_CL5701 MITC95” value is 3.13 µM. In addition, the “KP_CL6569 MITC95” value in assay [2] stood at 0.78 µM.
The corresponding values for `CC1(C)[C@H](NC(=O)/C(=N\O[C@H](COc2ccc(Nc3nccn3CCCN)nc2)C(=O)O)c2csc(N)n2)C(=O)N1OS(=O)(=O)O` [Example 37B, 3-(2-((5-((R)-2-((((Z)-1-(2-aminothiazol-4-yl)-2-(((S)-2,2-dimethyl-4-oxo-1-(sulfooxy)azetidin-3-yl)amino)-2-oxoethylidene)amino)oxy)-2-carboxyethoxy)pyridin-2-yl)amino)-1H-imidazol-1-yl)propan-1-aminium 2,2,2-trifluoroacetate] are 25 µM and 6.25 µM.
On the same counts, the results for `C[n+]1cc(-c2ccc(OC[C@H](O/N=C(\C(=O)N[C@@H]3C(=O)N(OS(=O)(=O)[O-])C3(C)C)c3csc(N)n3)C(=O)O)cc2Cl)cn1CCCN` [Example 38, (S)-3-((Z)-2-(((S)-2-(4-(1-(3-aminopropyl)-2-methyl-1H-pyrazol-2-ium-4-yl)-3-chlorophenoxy)-1-carboxyethoxy)imino)-2-(2-aminothiazol-4-yl)acetamido)-2,2-dimethyl-4-oxoazetidin-1-yl sulfate] are 6.25 µM and 0.3906 µM.
On the same counts, the results for `C[n+]1cc(-c2ccc(OC[C@](C)(O/N=C(\C(=O)N[C@@H]3C(=O)N(OS(=O)(=O)O)C3(C)C)c3csc(N)n3)C(=O)O)cc2)cn1CCCN` [Example 39, (S)-3-((Z)-2-((((S)-1-(4-(1-(3-aminopropyl)-2-methyl-1H-pyrazol-2-ium-4-yl)phenoxy)-2-carboxypropan-2-yl)oxy)imino)-2-(2-aminothiazol-4-yl)acetamido)-2,2-dimethyl-4-oxoazetidin-1-yl sulfate] are 3.125 µM and 0.3255 µM.
On to `C[n+]1cc(-c2ccc(OCC(O/N=C(\C(=O)N[C@@H]3C(=O)N(OS(=O)(=O)O)C3(C)C)c3csc(N)n3)P(=O)(O)O)cc2)cn1CCCN` (stereo partly drawn) [Example 40, (3S)-3-((Z)-2-((2-(4-(1-(3-aminopropyl)-2-methyl-1H-pyrazol-2-ium-4-yl)phenoxy)-1-phosphonoethoxy)imino)-2-(2-aminothiazol-4-yl)acetamido)-2,2-dimethyl-4-oxoazetidin-1-yl sulfate], for which the “PA_CL5701 MITC95” value in assay [1] came to 50 µM. Also, in assay [2], the “KP_CL6569 MITC95” value is 3.125 µM.
The corresponding values for `COP(=O)(O)[C@H](COc1ccc(-c2cn(CCCN)[n+](C)c2)cc1)O/N=C(\C(=O)N[C@@H]1C(=O)N(OS(=O)(=O)O)C1(C)C)c1csc(N)n1.O=C(O)C(F)(F)F` [Example 41, (3S)-3-((Z)-2-(((1R)-2-(4-(1-(3-aminopropyl)-2-methyl-1H-pyrazol-2-ium-4-yl)phenoxy)-1-(hydroxy(methoxy)phosphoryl)ethoxy)imino)-2-(2-aminothiazol-4-yl)acetamido)-2,2-dimethyl-4-oxoazetidin-1-yl sulfate compound with 2,2,2-trifluoroacetic acid (1:1)] are 25 µM and 1.563 µM.
On the same counts, the results for `C[n+]1cc(-c2ccc(OC[C@H](O/N=C(\C(=O)N[C@@H]3C(=O)N(OS(=O)(=O)O)C3(C)C)c3csc(N)n3)C(=O)O)cc2)cn1CC(O)CN` (stereo partly drawn) [Example 42, (3S)-3-((Z)-2-(((1S)-2-(4-(1-(3-amino-2-hydroxypropyl)-2-methyl-1H-pyrazol-2-ium-4-yl)phenoxy)-1-carboxyethoxy)imino)-2-(2-aminothiazol-4-yl)acetamido)-2,2-dimethyl-4-oxoazetidin-1-yl sulfate] are 3.125 µM and 0.3906 µM.
On the same counts, the results for `C[n+]1cc(-c2ccc(OC[C@H](O/N=C(\C(=O)N[C@@H]3C(=O)N(OS(=O)(=O)O)C3(C)C)c3csc(N)n3)C(=O)O)cc2F)cn1CC(O)CN.O=CO` (stereo partly drawn) [Example 44, (3S)-3-((Z)-2-(((1S)-2-(4-(1-(3-amino-2-hydroxypropyl)-2-methyl-1H-pyrazol-2-ium-4-yl)-3-fluorophenoxy)-1-carboxyethoxy)imino)-2-(2-aminothiazol-4-yl)acetamido)-2,2-dimethyl-4-oxoazetidin-1-yl sulfate compound with formic acid (1:1)] are 3.125 µM and 0.1953 µM.
In the case of `C[n+]1c(N)c(-c2ccc(OC[C@H](O/N=C(\C(=O)N[C@@H]3C(=O)N(OS(=O)(=O)[O-])C3(C)C)c3csc(N)n3)C(=O)O)cc2F)cn1CCCN` [Example 47, (S)-3-((Z)-2-(((S)-2-(4-(3-Amino-1-(3-aminopropyl)-2-methyl-1H-pyrazol-2-ium-4-yl)-3-fluorophenoxy)-1-carboxyethoxy)imino)-2-(2-aminothiazol-4-yl)acetamido)-2,2-dimethyl-4-oxoazetidin-1-yl sulfate], the “PA_CL5701 MITC95” value in assay [1] worked out at 3.125 µM. In assay [2], the “KP_CL6569 MITC95” value was found to be 0.3906 µM.
The corresponding values for `C[n+]1c(N)c(-c2ccc(OC[C@H](O/N=C(\C(=O)N[C@@H]3C(=O)N(OS(=O)(=O)[O-])C3(C)C)c3nc(N)sc3Cl)C(=O)O)cc2F)cn1CCCN` [Example 48, (S)-3-((Z)-2-(((S)-2-(4-(3-Amino-1-(3-aminopropyl)-2-methyl-1H-pyrazol-2-ium-4-yl)-3-fluorophenoxy)-1-carboxyethoxy)imino)-2-(2-amino-5-chlorothiazol-4-yl)acetamido)-2,2-dimethyl-4-oxoazetidin-1-yl sulfate] are 6.25 µM and 0.7813 µM.
On to `C[n+]1c(N)c(-c2ccc(OC[C@H](O/N=C(\C(=O)N[C@@H]3C(=O)N(OS(=O)(=O)[O-])C3(C)C)c3nc(N)sc3Cl)C(=O)O)cc2)cn1CCCN` [Example 49, (S)-3-((Z)-2-(((S)-2-(4-(3-Amino-1-(3-aminopropyl)-2-methyl-1H-pyrazol-2-ium-4-yl)phenoxy)-1-carboxyethoxy)imino)-2-(2-amino-5-chlorothiazol-4-yl)acetamido)-2,2-dimethyl-4-oxoazetidin-1-yl sulfate], for which the “PA_CL5701 MITC95” value in assay [1] came to 6.25 µM. Further, the “KP_CL6569 MITC95” value in assay [2] was determined as 0.7813 µM.
On the same counts, the results for `C[n+]1cc(-c2ccc(OC[C@@](C)(O/N=C(\C(=O)N[C@@H]3C(=O)N(OS(=O)(=O)O)C3(C)C)c3nc(N)sc3Cl)C(=O)O)cc2)cn1CCCN` [Example 51B, (S)-3-((Z)-2-(2-amino-5-chlorothiazol-4-yl)-2-((((R)-1-(4-(1-(3-aminopropyl)-2-methyl-1H-pyrazol-2-ium-4-yl)phenoxy)-2-carboxypropan-2-yl)oxy)imino)acetamido)-2,2-dimethyl-4-oxoazetidin-1-yl sulfate] are 25 µM and 6.25 µM.
On the same counts, the results for `CC1(C)[C@H](NC(=O)/C(=N\O[C@@H](COc2ccc(-c3cn(C[C@@H](O)CN)[n+](CC4CNC4)c3)cc2)C(=O)O)c2csc(N)n2)C(=O)N1OS(=O)(=O)[O-]` [Example 52, (S)-3-((Z)-2-(((S)-2-(4-(1-((S)-3-Amino-2-hydroxypropyl)-2-(azetidin-3-ylmethyl)-1H-pyrazol-2-ium-4-yl)phenoxy)-1-carboxyethoxy)imino)-2-(2-aminothiazol-4-yl)acetamido)-2,2-dimethyl-4-oxoazetidin-1-yl sulfate] are 1.563 µM and 0.1953 µM.
On the same counts, the results for `CC1(C)[C@H](NC(=O)/C(=N\O[C@@H](COc2ccc(-c3cn(CCCN)[n+](C[C@@H]4CCNC4)c3)cc2)C(=O)O)c2csc(N)n2)C(=O)N1OS(=O)(=O)[O-]` [Example 53, (S)-3-((Z)-2-(((S)-2-(4-(1-(3-aminopropyl)-2-(((R)-pyrrolidin-3-yl)methyl)-1H-pyrazol-2-ium-4-yl)phenoxy)-1-carboxyethoxy)imino)-2-(2-aminothiazol-4-yl)acetamido)-2,2-dimethyl-4-oxoazetidin-1-yl sulfate] are 1.563 µM and 0.09766 µM.
On to `CC1(C)[C@H](NC(=O)/C(=N\O[C@@H](COc2ccc(-c3cn(CCCN)[n+](CCCN)c3)cc2)C(=O)O)c2csc(N)n2)C(=O)N1OS(=O)(=O)[O-]` [Example 54, (S)-3-((Z)-2-(2-aminothiazol-4-yl)-2-(((S)-2-(4-(1,2-bis(3-aminopropyl)-1H-pyrazol-2-ium-4-yl)phenoxy)-1-carboxyethoxy)imino)acetamido)-2,2-dimethyl-4-oxoazetidin-1-yl sulfate], for which, in assay [1], the “PA_CL5701 MITC95” value was 1.563 µM. For the same compound, the “KP_CL6569 MITC95” value in assay [2] turned out to be 0.09766 µM.
The corresponding values for `Cn1c(-c2ccc(OC[C@H](O/N=C(\C(=O)N[C@@H]3C(=O)N(OS(=O)(=O)O)C3(C)C)c3csc(N)n3)C(=O)O)cc2)cn(CC(CN)CN)c1=N` [Example 55, (S)-3-(4-(1-(3-amino-2-(aminomethyl)propyl)-2-imino-3-methyl-2,3-dihydro-1H-imidazol-4-yl)phenoxy)-2-((((Z)-1-(2-aminothiazol-4-yl)-2-(((S)-2,2-dimethyl-4-oxo-1-(sulfooxy)azetidin-3-yl)amino)-2-oxoethylidene)amino)oxy)propanoic acid] are 1.563 µM and 0.1953 µM.
